The source of these data is patent US20220380375A1, “SUBSTITUTED AROMATIC FUSED RING DERIVATIVE AND COMPOSITION COMPRISING SAME, AND USE THEREOF” (Shenzhen TargetRx, Inc., priority 2019, published 2022).

SMILES strings stand for the structures.

Holding throughout (type): cell-based
Test [1] relates to Ba/F3 KIF5B-RET cells. Put plainly: Cytotoxicity assay (CellTiter-Glo), Ba/F3 KIF5B-RET. The settings on record: ratio of Ba/F3 parental IC50 to Ba/F3 KIF5B-RET IC50. The protocol:
(§1) Inhibitory effects of example compounds on the activity of Ba/F3 parental generation, Ba/F3 KIF5B-RET, Ba/F3 KIF5B-RET^V804M, Ba/F3 KIF5B-RET^V804L, Ba/F3 KIF5B-RET^G810R, Ba/F3 FLT3-ITD, Ba/F3 FLT3-ITD^D835Y, Ba/F3 FLT3-ITD^F691L cells were determined.
(§2) Materials and reagents: fetal bovine serum FBS (GIBCO, Cat #10099141), CellTiter-Glo® Luminescent Cell Viability Assay kit (Promega, Cat #G7572), 96-well black-wall clear flat-bottom plate (Corning®, Cat #3603).
(§3) 1. Cells in the logarithmic growth phase were harvested and counted with a […]. Cell viability was detected by a trypan blue exclusion method, ensuring that cell viability was 90% or more; 2. Cell concentration was adjusted to about 3000 cells/well; 90 μl of cell suspension was added to each well of the 96-well plate; 3. The cells in the 96-well plate were incubated overnight under the condition of 37° C., 5% CO2, and 95% humidity.
(§4) 1. A series of compound solutions were formulated by 3.16-fold serial dilution starting from a concentration of 10 μM, resulting in 9 concentrations. 10 μL of the compound solutions were added in each well of the 96-well plate seeded with cells in triplicate for each compound concentration; 2. The cells in the 96-well plate added with compounds were further incubated under the condition of 37° C., 5% CO2, and 95% humidity for 72 hrs, and then CTG analysis was carried out.
(§5) 1. CTG reagent was thawed, and the cell plate was equilibrated at room temperature for 30 minutes; 2. An equal volume […] of CTG solution was added to each well; 3. The cell plate was shaken on an orbital shaker for 5 minutes to lyse the cells; 4. The cell plate was placed at RT for 20 minutes to stabilize the luminescence signal; 5. Luminescence value was read.
(§6) Data were Analyzed by GraphPad Prism 5.0 Software, and Fitted by Nonlinear S-Curve Regression to obtain a dose-response curve, from which IC50 values were calculated.
(§7) Cell survival rate (%)=(luminescence value of drug to be tested−luminescence value of culture medium control)/(luminescence value of cell control−luminescence value of culture medium control)×100%.
On the technique in general: Cellular ATP, detected with luciferase, serves as a proxy for viable cell number.

Test [2] has as its target T1, Ba/F3 KIF5B-RET cells (Homo sapiens, UniProt P07949).
T1 construct: Ba/F3 KIF5B-RET IC50 (nM); other: CellTiter-Glo, 72 hrs; fused on or other part: P33176 (Kinesin-1 heavy chain)
The description is as above. The settings on record: CellTiter-Glo, 72 hrs; read-out: Ba/F3 KIF5B-RET IC50. The protocol:
as §1, §2, §3, §4, §5, §6, §7

Test [3] addresses T2, Ba/F3 FLT3-ITD^D835Y cells (Homo sapiens, UniProt P36888, D835Y, cells depend on it, form not given).
T2 construct: Ba/F3 FLT3-ITD^D835Y IC50 (nM); other: CellTiter-Glo, 72 hrs
T2 sequence (P36888 1-993 D835Y): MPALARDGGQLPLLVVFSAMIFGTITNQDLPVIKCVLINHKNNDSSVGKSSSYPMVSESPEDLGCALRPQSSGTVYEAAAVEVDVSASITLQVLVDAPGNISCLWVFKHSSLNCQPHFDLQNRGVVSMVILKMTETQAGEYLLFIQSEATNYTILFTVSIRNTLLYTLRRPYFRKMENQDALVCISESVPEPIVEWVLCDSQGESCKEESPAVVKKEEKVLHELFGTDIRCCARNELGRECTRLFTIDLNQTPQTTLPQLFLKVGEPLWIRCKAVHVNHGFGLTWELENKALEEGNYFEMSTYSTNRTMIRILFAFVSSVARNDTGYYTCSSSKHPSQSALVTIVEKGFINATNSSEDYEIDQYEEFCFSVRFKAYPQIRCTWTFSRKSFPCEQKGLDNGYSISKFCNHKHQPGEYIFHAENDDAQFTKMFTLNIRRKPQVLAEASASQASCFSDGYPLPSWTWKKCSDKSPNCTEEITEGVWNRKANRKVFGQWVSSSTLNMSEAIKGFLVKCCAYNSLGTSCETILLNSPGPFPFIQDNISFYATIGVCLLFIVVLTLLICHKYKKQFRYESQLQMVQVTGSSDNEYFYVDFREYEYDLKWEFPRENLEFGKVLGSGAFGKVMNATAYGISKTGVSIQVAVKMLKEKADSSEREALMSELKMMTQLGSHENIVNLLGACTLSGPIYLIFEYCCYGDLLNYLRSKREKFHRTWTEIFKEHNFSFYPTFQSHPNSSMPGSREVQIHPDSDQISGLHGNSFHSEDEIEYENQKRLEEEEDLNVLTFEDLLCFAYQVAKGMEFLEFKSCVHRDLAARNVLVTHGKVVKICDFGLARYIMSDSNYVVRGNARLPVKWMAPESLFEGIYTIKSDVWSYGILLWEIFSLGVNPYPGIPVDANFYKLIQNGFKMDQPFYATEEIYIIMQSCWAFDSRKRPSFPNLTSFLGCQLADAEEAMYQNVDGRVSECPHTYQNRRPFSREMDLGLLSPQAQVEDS
Put plainly: Cytotoxicity assay (CellTiter-Glo), Ba/F3 FLT3-ITD D835Y. The settings on record: CellTiter-Glo, 72 hrs; read-out: Ba/F3 FLT3-ITD^D835Y IC50. The protocol:
as §1, §2, §3, §4, §5, §6, §7

Test [4] relates to Ba/F3 FLT3-ITD^D835Y cells. The test is described as above. The settings on record: ratio of Ba/F3 parental IC50 to Ba/F3 FLT3-ITD^D835Y IC50. The method, then: as §1, §2, §3, §4, §5, §6, §7

T1 sequence (P07949 whole entry, change not shown, the tested form may be a part): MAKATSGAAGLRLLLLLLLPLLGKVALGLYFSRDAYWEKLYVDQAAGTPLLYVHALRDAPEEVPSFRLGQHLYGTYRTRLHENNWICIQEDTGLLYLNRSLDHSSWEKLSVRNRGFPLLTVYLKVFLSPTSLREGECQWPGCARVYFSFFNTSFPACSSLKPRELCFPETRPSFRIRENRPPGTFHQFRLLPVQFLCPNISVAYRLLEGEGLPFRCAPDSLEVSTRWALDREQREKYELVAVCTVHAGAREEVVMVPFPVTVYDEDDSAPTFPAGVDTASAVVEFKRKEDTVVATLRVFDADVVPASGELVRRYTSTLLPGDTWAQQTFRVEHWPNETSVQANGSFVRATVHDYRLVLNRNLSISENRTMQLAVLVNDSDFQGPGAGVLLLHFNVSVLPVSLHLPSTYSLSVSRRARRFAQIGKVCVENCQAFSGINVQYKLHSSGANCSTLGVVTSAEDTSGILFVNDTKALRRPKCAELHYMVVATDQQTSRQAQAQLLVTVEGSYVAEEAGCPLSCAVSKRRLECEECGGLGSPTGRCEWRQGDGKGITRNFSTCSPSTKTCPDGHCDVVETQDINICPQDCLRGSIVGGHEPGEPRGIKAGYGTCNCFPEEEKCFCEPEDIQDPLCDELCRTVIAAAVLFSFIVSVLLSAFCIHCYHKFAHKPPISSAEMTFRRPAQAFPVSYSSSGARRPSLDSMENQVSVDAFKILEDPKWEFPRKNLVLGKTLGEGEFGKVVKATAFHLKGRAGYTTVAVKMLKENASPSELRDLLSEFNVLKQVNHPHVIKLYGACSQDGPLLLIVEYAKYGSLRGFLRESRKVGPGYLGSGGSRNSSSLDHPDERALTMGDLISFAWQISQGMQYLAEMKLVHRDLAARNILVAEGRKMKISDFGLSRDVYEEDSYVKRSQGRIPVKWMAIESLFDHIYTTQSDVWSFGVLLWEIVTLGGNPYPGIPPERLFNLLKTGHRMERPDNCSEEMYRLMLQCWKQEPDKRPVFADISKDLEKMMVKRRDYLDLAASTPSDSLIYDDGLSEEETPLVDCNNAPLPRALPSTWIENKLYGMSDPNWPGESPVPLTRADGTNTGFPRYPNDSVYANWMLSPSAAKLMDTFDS

As for `[2H]C([2H])([2H])C(n1cc(-c2ccc(CC(=O)Nc3cc(C(C)(C)C(F)(F)F)on3)cc2)c2c(N)ncnc21)C([2H])([2H])[2H]` [Compound T-12, 2-(4-(4-amino-7-(propen-2-yl-1,1,1,3,3,d6)-7H-pyrrolo[2,3-d]pyrimidin-5-yl)phenyl)-N-(5-(1,1,1-trifluo-2-methylpropan-2-yl)isoxazol-3-yl)acetamide], the “Ba/F3 KIF5B-RET Selectivity on parental generation” value in the test with Ba/F3 KIF5B-RET cells [1] was found to be 478.6. For the same molecule, the GI50 at Ba/F3 KIF5B-RET cells [2] turned out to be 2.24 nM; in test [3], 12.3 nM. Also, in test [4], the “Ba/F3 FLT3-ITD^D835Y Selectivity on parental generation” value is reported as 87.2.
